Key:
in vitro = settings: human, liver microsomes
[1] = biological target: DNA-dependent protein kinase catalytic subunit (Homo sapiens, UniProt P78527)
Description: Inhibition of human DNA-PK incubated for 30 mins in presence of Mg/ATP by HTRF method

HCT-116 = assay: Inhibition of colony formation in human HCT-116 cells at […] preincubated with compound for 1 hr followed by exposure to 2 Gy gamma irradiation and measured after 7 days by crystal violet staining based chemiluminescence assay relative to control; type: functional; settings: HCT-116, light or radiation study, dose 0.25 µM, time 169 hrs

Sequence of DNA-dependent protein kinase catalytic subunit (P78527 whole entry): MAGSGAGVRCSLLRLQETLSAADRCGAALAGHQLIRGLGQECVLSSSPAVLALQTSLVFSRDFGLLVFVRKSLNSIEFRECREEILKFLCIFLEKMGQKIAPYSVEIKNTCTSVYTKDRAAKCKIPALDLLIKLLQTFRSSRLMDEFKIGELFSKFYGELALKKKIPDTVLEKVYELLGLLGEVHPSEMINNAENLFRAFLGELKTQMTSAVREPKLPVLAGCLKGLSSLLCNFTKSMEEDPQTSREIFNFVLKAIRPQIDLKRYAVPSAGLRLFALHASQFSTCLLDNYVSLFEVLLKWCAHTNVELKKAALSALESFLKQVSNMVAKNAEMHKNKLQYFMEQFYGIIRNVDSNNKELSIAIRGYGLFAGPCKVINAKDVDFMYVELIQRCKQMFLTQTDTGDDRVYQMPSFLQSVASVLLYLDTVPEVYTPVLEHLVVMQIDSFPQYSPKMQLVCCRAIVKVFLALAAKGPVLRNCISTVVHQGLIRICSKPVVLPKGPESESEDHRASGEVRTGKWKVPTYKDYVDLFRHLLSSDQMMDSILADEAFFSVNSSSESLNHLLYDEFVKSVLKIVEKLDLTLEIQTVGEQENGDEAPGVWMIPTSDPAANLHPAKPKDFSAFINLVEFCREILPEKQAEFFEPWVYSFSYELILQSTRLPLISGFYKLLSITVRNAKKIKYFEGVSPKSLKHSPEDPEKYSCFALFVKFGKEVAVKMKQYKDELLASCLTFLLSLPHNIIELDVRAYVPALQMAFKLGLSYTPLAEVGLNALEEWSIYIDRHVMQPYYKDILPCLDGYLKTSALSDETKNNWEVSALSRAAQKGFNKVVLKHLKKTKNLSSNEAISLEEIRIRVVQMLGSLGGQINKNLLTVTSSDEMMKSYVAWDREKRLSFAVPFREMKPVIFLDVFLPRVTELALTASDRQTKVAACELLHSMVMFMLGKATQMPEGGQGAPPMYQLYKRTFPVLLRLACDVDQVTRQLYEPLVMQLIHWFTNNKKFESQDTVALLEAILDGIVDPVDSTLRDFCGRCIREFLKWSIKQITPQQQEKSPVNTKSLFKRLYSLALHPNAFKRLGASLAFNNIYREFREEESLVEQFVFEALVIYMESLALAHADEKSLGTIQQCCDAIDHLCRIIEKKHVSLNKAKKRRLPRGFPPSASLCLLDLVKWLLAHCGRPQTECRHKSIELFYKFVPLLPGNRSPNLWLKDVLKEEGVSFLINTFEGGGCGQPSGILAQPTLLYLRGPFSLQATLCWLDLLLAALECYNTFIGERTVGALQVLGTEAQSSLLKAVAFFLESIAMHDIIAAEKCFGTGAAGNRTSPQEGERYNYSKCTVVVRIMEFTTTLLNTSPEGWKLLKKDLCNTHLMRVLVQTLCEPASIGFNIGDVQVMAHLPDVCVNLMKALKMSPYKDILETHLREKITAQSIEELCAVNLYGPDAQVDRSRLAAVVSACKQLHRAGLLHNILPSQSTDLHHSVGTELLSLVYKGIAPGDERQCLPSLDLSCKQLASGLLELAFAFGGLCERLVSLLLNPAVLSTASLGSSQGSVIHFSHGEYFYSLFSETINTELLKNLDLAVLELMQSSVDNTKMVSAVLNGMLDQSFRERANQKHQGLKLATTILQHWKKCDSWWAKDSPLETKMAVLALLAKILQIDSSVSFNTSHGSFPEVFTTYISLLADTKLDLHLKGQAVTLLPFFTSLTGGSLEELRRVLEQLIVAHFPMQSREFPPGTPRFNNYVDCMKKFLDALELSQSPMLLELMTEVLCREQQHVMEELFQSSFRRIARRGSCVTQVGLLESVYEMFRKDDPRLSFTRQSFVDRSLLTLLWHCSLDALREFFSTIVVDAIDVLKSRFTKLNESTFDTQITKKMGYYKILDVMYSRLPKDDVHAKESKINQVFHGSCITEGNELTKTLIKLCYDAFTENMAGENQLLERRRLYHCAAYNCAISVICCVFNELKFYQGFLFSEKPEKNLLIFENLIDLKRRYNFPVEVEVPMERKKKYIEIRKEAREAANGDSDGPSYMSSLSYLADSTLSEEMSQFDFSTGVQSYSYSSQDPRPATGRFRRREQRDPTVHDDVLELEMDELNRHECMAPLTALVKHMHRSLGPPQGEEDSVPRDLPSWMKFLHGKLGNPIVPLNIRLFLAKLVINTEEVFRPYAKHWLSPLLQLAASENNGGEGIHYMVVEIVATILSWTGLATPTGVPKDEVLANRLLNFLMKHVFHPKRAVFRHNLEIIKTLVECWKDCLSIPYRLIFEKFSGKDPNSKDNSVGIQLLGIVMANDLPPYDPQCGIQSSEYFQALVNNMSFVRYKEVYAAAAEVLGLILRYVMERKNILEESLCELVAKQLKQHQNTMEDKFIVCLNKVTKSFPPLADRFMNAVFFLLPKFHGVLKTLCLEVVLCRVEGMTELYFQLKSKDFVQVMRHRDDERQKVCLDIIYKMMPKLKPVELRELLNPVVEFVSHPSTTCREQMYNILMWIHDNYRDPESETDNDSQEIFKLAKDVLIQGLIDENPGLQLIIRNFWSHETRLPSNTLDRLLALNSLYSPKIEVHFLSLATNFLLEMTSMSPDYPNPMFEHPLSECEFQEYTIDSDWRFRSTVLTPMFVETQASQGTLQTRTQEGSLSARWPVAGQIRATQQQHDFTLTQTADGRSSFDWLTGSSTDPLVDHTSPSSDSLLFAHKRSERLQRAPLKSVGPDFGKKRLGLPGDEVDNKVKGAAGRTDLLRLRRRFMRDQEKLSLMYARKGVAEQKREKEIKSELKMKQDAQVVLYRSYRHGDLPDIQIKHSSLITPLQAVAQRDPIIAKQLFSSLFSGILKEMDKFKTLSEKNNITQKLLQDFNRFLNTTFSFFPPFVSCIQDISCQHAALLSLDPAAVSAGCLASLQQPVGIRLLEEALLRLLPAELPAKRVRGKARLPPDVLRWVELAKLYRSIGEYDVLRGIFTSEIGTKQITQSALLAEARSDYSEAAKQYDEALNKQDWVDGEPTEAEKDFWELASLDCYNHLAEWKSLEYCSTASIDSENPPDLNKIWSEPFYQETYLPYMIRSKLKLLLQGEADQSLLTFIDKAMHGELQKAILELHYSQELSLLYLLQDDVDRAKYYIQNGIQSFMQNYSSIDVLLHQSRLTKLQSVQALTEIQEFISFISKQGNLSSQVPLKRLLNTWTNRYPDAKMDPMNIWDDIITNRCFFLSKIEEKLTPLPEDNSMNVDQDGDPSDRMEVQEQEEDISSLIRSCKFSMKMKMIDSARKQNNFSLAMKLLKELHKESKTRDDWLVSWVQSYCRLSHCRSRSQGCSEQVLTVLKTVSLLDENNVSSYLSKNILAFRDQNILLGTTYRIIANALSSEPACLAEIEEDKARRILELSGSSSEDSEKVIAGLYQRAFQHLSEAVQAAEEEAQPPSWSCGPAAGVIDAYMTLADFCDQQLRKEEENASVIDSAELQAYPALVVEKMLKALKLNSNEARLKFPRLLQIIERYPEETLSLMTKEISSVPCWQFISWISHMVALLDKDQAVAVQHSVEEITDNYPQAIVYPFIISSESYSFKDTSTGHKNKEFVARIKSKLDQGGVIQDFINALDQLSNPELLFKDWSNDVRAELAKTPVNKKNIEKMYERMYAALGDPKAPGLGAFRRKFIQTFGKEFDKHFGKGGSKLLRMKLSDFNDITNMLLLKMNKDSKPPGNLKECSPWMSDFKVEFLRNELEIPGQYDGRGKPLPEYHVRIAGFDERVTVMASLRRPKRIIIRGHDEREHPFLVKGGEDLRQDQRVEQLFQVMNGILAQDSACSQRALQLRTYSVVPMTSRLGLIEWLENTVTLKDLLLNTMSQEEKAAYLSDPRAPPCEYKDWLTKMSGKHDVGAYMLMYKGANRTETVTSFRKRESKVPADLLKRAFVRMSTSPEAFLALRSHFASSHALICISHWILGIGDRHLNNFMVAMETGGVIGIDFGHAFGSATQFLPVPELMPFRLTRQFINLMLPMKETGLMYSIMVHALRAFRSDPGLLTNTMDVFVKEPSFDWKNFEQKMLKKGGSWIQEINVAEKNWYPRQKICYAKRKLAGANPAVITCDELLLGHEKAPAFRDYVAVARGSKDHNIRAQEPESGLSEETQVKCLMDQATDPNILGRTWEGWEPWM

Row | Structure (SMILES) | half-life at 5 min, 1 µM (in vitro) [h] | IC50 [1] [nM] | inhibition at […] (HCT-116) [%]
1 | Cc1cc(-c2cn(C)nc2C)ncc1Nc1ncc2c(n1)n(C1CCOCC1)c(=O)n2C | 128 | 6 | 77.4
2 | Cn1c(=O)n(C2CCOCC2)c2nc(N3CCc4ccccc43)ncc21 | 1.2 | – | -11.6
3 | Cc1cc(-c2cccnc2)ncc1Nc1ncc2c(n1)n(C1CCOCC1)c(=O)n2C | – | – | 97.4
4 | Cc1cc(-c2cnn(C)c2)ncc1Nc1ncc2c(n1)n(C1CCN(S(=O)(=O)C3CC3)CC1)c(=O)n2C | 3.04 | 2 | 84.9
5 | Cc1cc(-c2cncnc2)ncc1Nc1ncc2c(n1)n(C1CCOCC1)c(=O)n2C | – | – | 22.9
6 | Cc1cc(-c2c(C)noc2C)ncc1Nc1ncc2c(n1)n(C1CCOCC1)c(=O)n2C | – | – | 25
7 | Cc1cc(-c2cnn(C)c2)ncc1Nc1ncc2c(n1)n(C1CCN(C(=O)[C@@H]3C[C@H]3F)CC1)c(=O)n2C | – | – | 28.3
8 | Cc1nc(-c2cn[nH]c2)ccc1Nc1ncc2c(n1)n(C1CCOCC1)c(=O)n2C | 1.2 | 25 | 27.7
9 | CC(=O)c1ccc2c(c1)CCN2c1ncc2c(n1)n(C1CCOCC1)c(=O)n2C | – | 1 | 32.6
10 | COc1ccc(-c2ccc(Nc3ncc4c(n3)n(C3CCOCC3)c(=O)n4C)c(C)n2)cn1 | – | 161 | 29.9
11 | Cc1cc(-c2ncn(C)n2)ccc1Nc1ncc2c(n1)n(C1CCOCC1)c(=O)n2C | – | 13 | 56.1
12 | Cc1cc(-c2cnn(C)c2)ncc1Nc1ncc2c(n1)n([C@H]1CCOC1)c(=O)n2C | 28.9 | 6 | 90.7
13 | Cc1cc(-c2cnn(C)c2)ncc1Nc1ncc2c(n1)n(CC1CCOCC1)c(=O)n2C | – | – | 42.8
14 | Cc1cc(-c2ccnn2C)ncc1Nc1ncc2c(n1)n(C1CCOCC1)c(=O)n2C | 14.4 | 8 | 95
15 | Cc1ccc(-c2cnn(C)c2)cc1Nc1ncc2c(n1)n(C1CCOCC1)c(=O)n2C | 3.04 | 2 | 98
16 | Cc1cc(-c2cnn(C)c2)ncc1Nc1ncc2c(n1)n(C1CCN(C(=O)C3CC3(F)F)CC1)c(=O)n2C (stereo not given) | – | 12 | 47.3
17 | COc1cc2c(cc1OC)N(c1ncc3c(n1)n(C1CCOCC1)c(=O)n3C)CC2 | – | – | 89.8
18 | Cc1cc(-c2ccoc2)ncc1Nc1ncc2c(n1)n(C1CCOCC1)c(=O)n2C | 0.213 | – | 99.8
19 | Cc1ccc(-c2cc(C)c(Nc3ncc4c(n3)n(C3CCOCC3)c(=O)n4C)cn2)o1 | 0.642 | – | 76.7
20 | Cc1ncc(-c2cnn(C)c2)cc1Nc1ncc2c(n1)n(C1CCOCC1)c(=O)n2C | – | 10 | 74.3
21 | Cn1c(=O)n(C2CCOCC2)c2nc(Nc3ccc(-c4ccc5c(c4)OCO5)nc3)ncc21 | – | – | 85.8
22 | Cc1nc(-c2cnn(C)c2)ncc1Nc1ncc2c(n1)n(C1CCOCC1)c(=O)n2C | – | – | 63.2
23 | Cn1c(=O)n(C2CCOCC2)c2nc(N3CCc4cc(C(F)(F)F)ccc43)ncc21 | – | – | 41
24 | Cc1cc(-c2cnn(C(C)C)c2)ncc1Nc1ncc2c(n1)n(C1CCOCC1)c(=O)n2C | – | – | 12.6
25 | Cc1cc(-c2cnn(C)c2)ncc1Nc1ncc2c(n1)n(C1CCN(C(=O)C3CC3)CC1)c(=O)n2C | – | 3 | 66.9
26 | Cc1cc(-c2cnoc2)ncc1Nc1ncc2c(n1)n(C1CCOCC1)c(=O)n2C | – | – | 32.8
27 | Cn1c(=O)n(C2CCOCC2)c2nc(N3CCc4cc(F)c(F)cc43)ncc21 | – | – | 8.2
28 | CC(=O)N1CCC(n2c(=O)n(C)c3cnc(Nc4cnc(-c5cnn(C)c5)cc4C)nc32)CC1 | – | 1 | 14.7

Row | Structure (SMILES) | half-life at 5 min, 1 µM (in vitro) [h] | IC50 [1] [nM] | inhibition at […] (HCT-116) [%]
29 | Cc1cc(-c2cnn(C)c2)ncc1Nc1ncc2c(n1)n(C1CCCCC1C)c(=O)n2C (stereo not given) | – | 9 | 86.7
30 | Cc1cc(-c2cnn(C)c2)ncc1Nc1ncc2c(n1)n(C1CCN(S(C)(=O)=O)CC1)c(=O)n2C | – | 1 | 30.4
31 | Cc1cc(-c2cnn(C)c2)ccc1Nc1ncc2c(n1)n(C1CCOCC1)c(=O)n2C | – | – | 58.5
32 | COc1ccc(-c2ccc(Nc3ncc4c(n3)n(C3CCOCC3)c(=O)n4C)c(C)n2)cc1OC | – | – | 28.3
33 | Cc1cc(-c2cnn(C)c2)ncc1Nc1ncc2c(n1)n(C1CC1)c(=O)n2C | – | – | 53.1
34 | Cc1cc(-c2ccco2)ncc1Nc1ncc2c(n1)n(C1CCOCC1)c(=O)n2C | – | – | 99.7
35 | Cc1cc(-c2cnn(C)c2)cnc1Nc1ncc2c(n1)n(C1CCOCC1)c(=O)n2C | – | – | -0.2
36 | COc1cncc(-c2ccc(Nc3ncc4c(n3)n(C3CCOCC3)c(=O)n4C)c(C)n2)c1 | – | 5.3 | –
37 | Cc1cc(-c2cnn(C)c2)ncc1Nc1ncc2c(n1)n(C1CCN(S(=O)(=O)C(F)(F)F)CC1)c(=O)n2C | – | 5 | 86.7
38 | Cc1cc(-c2cn[nH]c2)ncc1Nc1ncc2c(n1)n(C1CCOCC1)c(=O)n2C | 0.963 | 0.4 | 86.7
39 | Cn1c(=O)n(C2CCOCC2)c2nc(N3CCc4ccc([N+](=O)[O-])cc43)ncc21 | – | – | 12.5
40 | Cc1cc(-c2cn(C)nc2C(F)(F)F)ncc1Nc1ncc2c(n1)n(C1CCOCC1)c(=O)n2C | 1.99 | 4 | 63.9
41 | Cc1nc(-c2ccnn2C)ccc1Nc1ncc2c(n1)n(C1CCOCC1)c(=O)n2C | – | 9.6 | –
42 | Cc1cc(-c2cnn(C)c2)ncc1Nc1ncc2c(n1)n(C1CCNCC1)c(=O)n2C | – | 0.9 | 46.8
43 | COc1cc(-c2cc(C)c(Nc3ncc4c(n3)n(C3CCOCC3)c(=O)n4C)cn2)cc(OC)c1OC | – | – | -11.4
44 | Cc1cc(-c2coc(C=O)c2)ncc1Nc1ncc2c(n1)n(C1CCOCC1)c(=O)n2C | 0.235 | – | 96.9
45 | COc1ncc(-c2cc(C)c(Nc3ncc4c(n3)n(C3CCOCC3)c(=O)n4C)cn2)cn1 | – | – | 34
46 | Cc1nc(-c2cnn(C)c2)ccc1Nc1ncc2c(n1)n(C1CCOCC1)c(=O)n2C | – | – | 23.3
47 | Cc1cc(-c2cnn(C3CC3)c2)ncc1Nc1ncc2c(n1)n(C1CCOCC1)c(=O)n2C | – | – | 63.3
48 | Cc1cc(-c2cnn(C)c2C)ncc1Nc1ncc2c(n1)n(C1CCOCC1)c(=O)n2C | – | – | 28
49 | Cn1c(=O)n(C2CCOCC2)c2nc(N3CCc4cc(C#N)ccc43)ncc21 | 0.352 | 13 | 84.7
50 | COC(=O)c1ccc2c(c1)CCN2c1ncc2c(n1)n(C1CCOCC1)c(=O)n2C | – | 5 | 48.1
51 | Cn1c(=O)n(C2CCOCC2)c2nc(N3CCc4cc(S(C)(=O)=O)ccc43)ncc21 | – | – | 5.8
52 | Cc1cc(-c2cnn(C)c2)ncc1Nc1ncc2c(n1)n([C@@]13C[C@@H]4C[C@@](C)(C[C@@](C)(C4)C1)C3)c(=O)n2C | 0.0373 | – | 83.9
53 | Cc1cc(-c2ccc3c(c2)OCCO3)ncc1Nc1ncc2c(n1)n(C1CCOCC1)c(=O)n2C | – | – | 60
54 | Cc1cc(-c2cccc(S(C)(=O)=O)c2)ncc1Nc1ncc2c(n1)n(C1CCOCC1)c(=O)n2C | – | – | 19.3
55 | Cc1cc(-c2c(C)nn(C)c2C)ncc1Nc1ncc2c(n1)n(C1CCOCC1)c(=O)n2C | – | – | 22.9

Source: ChEMBL document CHEMBL5532664, “Discovery, Optimization, and Evaluation of Potent and Selective DNA-PK Inhibitors in Combination with Chemotherapy or Radiotherapy for the Treatment of Malignancies” (J Med Chem, 2024)
